Laboratory results published in PubChem BioAssay AID2060491 (Molecular Pharmacology Branch, DTP, NCI, 2025).

Test system: 857933-349-R-J2-PDC complex spheroids, viability
Test: Anticancer human tumor 857933-349-R-J2-PDC patient-derived colon adenocarcinoma cell line growth inhibition [GQUAD]
Settings: for IC50: curve of first compound; for viability, T/C: stronger effect = lower value
In short: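 Viability of tumor cells grown as complex spheroids with endothelial and stromal cells, exposed to drug combinations. Top concentration at or near clinical Cmax (else 10 microM), diluted in half-log increments.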

[1] = second compound 0.0316 µM, first compound 0.0316 µM
[2] = second compound 0.0316 µM, first compound 0.1 µM
[3] = second compound 0.0316 µM, first compound 0.316 µM
[4] = second compound 0.0316 µM, first compound 1 µM
[5] = second compound 0.0316 µM, first compound 3.16 µM
[6] = second compound 0.0316 µM, first compound 10 µM
[7] = second compound 0.1 µM, first compound 0.0316 µM
[8] = second compound 0.1 µM, first compound 0.1 µM
[9] = second compound 0.1 µM, first compound 0.316 µM
[10] = second compound 0.1 µM, first compound 1 µM
[11] = second compound 0.1 µM, first compound 3.16 µM
[12] = second compound 0.1 µM, first compound 10 µM
[13] = second compound 0.316 µM, first compound 0.0316 µM
[14] = second compound 0.316 µM, first compound 0.1 µM
[15] = second compound 0.316 µM, first compound 0.316 µM
[16] = second compound 0.316 µM, first compound 1 µM
[17] = second compound 0.316 µM, first compound 3.16 µM
[18] = second compound 0.316 µM, first compound 10 µM
[19] = second compound 1 µM, first compound 0.0316 µM
[20] = second compound 1 µM, first compound 0.1 µM
[21] = second compound 1 µM, first compound 0.316 µM
[22] = second compound 1 µM, first compound 1 µM
[23] = second compound 1 µM, first compound 3.16 µM
[24] = second compound 1 µM, first compound 10 µM
[25] = second compound 3.16 µM, first compound 0.0316 µM
[26] = second compound 3.16 µM, first compound 0.1 µM
[27] = second compound 3.16 µM, first compound 0.316 µM
[28] = second compound 3.16 µM, first compound 1 µM
[29] = second compound 3.16 µM, first compound 3.16 µM
[30] = second compound 3.16 µM, first compound 10 µM
[31] = second compound 10 µM, first compound 0.0316 µM
[32] = second compound 10 µM, first compound 0.1 µM
[33] = second compound 10 µM, first compound 0.316 µM
[34] = second compound 10 µM, first compound 1 µM
[35] = second compound 10 µM, first compound 3.16 µM
[36] = second compound 10 µM, first compound 10 µM
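Further: spheroids exposed to compounds for one week before readout.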
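Wherever viability, T/C is given: percent viability relative to vehicle DMSO wells taken as 100%.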

Work on CC(C)(O)C1CCC(Nc2ccc3ncc(-c4cccc(C(F)(F)F)c4)n3n2)CC1 (stereo not drawn) + Cc1cnc(CNC(=O)c2c(=O)c3ccc(N4CCCN(C)CC4)nc3n3c2sc2ccccc23)cn1 yielded an IC50 (second compound 0.0316 µM) of 487 nM, an IC50 (second compound 0.1 µM) of 151 nM and an IC50 (second compound 0.316 µM) of under 31.6 nM. For the same compound, the IC50 (second compound 1 µM) was under 31.6 nM, the IC50 (second compound 3.16 µM) was under 31.6 nM and the IC50 (second compound 10 µM) was under 31.6 nM. For the same compound, the viability, T/C [1] was 86.5%, the viability, T/C [2] was 76% and the viability, T/C [3] was 73.6%. For the same compound, the viability, T/C [4] was 11.1%, the viability, T/C [5] was 0.4% and the viability, T/C [6] was 0.23%. It also gave a viability, T/C [7] of 53.4%, a viability, T/C [8] of 57.2% and a viability, T/C [9] of 41.4%. The viability, T/C [10] was 14%, the viability, T/C [11] was 0.2% and the viability, T/C [12] was 0.19%. The viability, T/C [13] was 16.1%, the viability, T/C [14] was 12.6% and the viability, T/C [15] was 8.9%. The viability, T/C [16] was 7.61%, the viability, T/C [17] was 0.11% and the viability, T/C [18] was 0.07%. The viability, T/C [19] was 3.09%, the viability, T/C [20] was 3% and the viability, T/C [21] was 2.95%. The viability, T/C [22] was 3.84%, the viability, T/C [23] was 0.05% and the viability, T/C [24] was 0.07%. It also gave a viability, T/C [25] of 1.54%, a viability, T/C [26] of 1.85% and a viability, T/C [27] of 2.05%. For the same compound, the viability, T/C [28] was 1.16%, the viability, T/C [29] was 0.11% and the viability, T/C [30] was 0.12%. The viability, T/C [31] was 0.23%, the viability, T/C [32] was 0.19% and the viability, T/C [33] was 0.3%. The viability, T/C [34] was 0.28%, the viability, T/C [35] was 0.22% and the viability, T/C [36] was 0.21%.
CCCS(=O)(=O)Nc1ccc(F)c(C(=O)c2c[nH]c3ncc(-c4ccc(Cl)cc4)cc23)c1F + Cc1cnc(CNC(=O)c2c(=O)c3ccc(N4CCCN(C)CC4)nc3n3c2sc2ccccc23)cn1 gave an IC50 (second compound 0.0316 µM) of 5200 nM, an IC50 (second compound 0.1 µM) of 1720 nM and an IC50 (second compound 0.316 µM) of under 31.6 nM. The IC50 (second compound 1 µM) was under 31.6 nM, the IC50 (second compound 3.16 µM) was under 31.6 nM and the IC50 (second compound 10 µM) was under 31.6 nM. It also gave a viability, T/C [1] of 85.1%, a viability, T/C [2] of 88.8% and a viability, T/C [3] of 77.6%. The viability, T/C [4] was 83.8%, the viability, T/C [5] was 86.5% and the viability, T/C [6] was 4.81%. It also gave a viability, T/C [7] of 56.2%, a viability, T/C [8] of 58.5% and a viability, T/C [9] of 52.4%. It also gave a viability, T/C [10] of 48.9%, a viability, T/C [11] of 47.5% and a viability, T/C [12] of 3.42%. It also gave a viability, T/C [13] of 24%, a viability, T/C [14] of 20.3% and a viability, T/C [15] of 19.5%. The viability, T/C [16] was 12.1%, the viability, T/C [17] was 5.66% and the viability, T/C [18] was 1.91%. It also gave a viability, T/C [19] of 3.43%, a viability, T/C [20] of 2.87% and a viability, T/C [21] of 2.84%. The viability, T/C [22] was 2.64%, the viability, T/C [23] was 3.04% and the viability, T/C [24] was 1.06%. For the same compound, the viability, T/C [25] was 2.4%, the viability, T/C [26] was 2.36% and the viability, T/C [27] was 2.38%. For the same compound, the viability, T/C [28] was 1.58%, the viability, T/C [29] was 2.13% and the viability, T/C [30] was 0.14%. For the same compound, the viability, T/C [31] was 0.2%, the viability, T/C [32] was 0.21% and the viability, T/C [33] was 0.23%. The viability, T/C [34] was 0.22%, the viability, T/C [35] was 0.23% and the viability, T/C [36] was 0.22%.
In the case of COc1ncnc(C2CC2)c1-c1ncc2cnn(Cc3ccc(-c4nc(C(F)(F)F)cn4C(C)C)cc3)c2n1 + Cc1cnc(CNC(=O)c2c(=O)c3ccc(N4CCCN(C)CC4)nc3n3c2sc2ccccc23)cn1, the IC50 (second compound 0.0316 µM) is reported as over 10000 nM, the IC50 (second compound 0.1 µM) is reported as over 10000 nM and the IC50 (second compound 0.316 µM) is reported as under 31.6 nM. For the same compound, the IC50 (second compound 1 µM) was under 31.6 nM, the IC50 (second compound 3.16 µM) was under 31.6 nM and the IC50 (second compound 10 µM) was under 31.6 nM. It also gave a viability, T/C [1] of 108%, a viability, T/C [2] of 80.5% and a viability, T/C [3] of 85.4%. For the same compound, the viability, T/C [4] was 81.6%, the viability, T/C [5] was 85.1% and the viability, T/C [6] was 86%. For the same compound, the viability, T/C [7] was 55.2%, the viability, T/C [8] was 58.1% and the viability, T/C [9] was 50%. For the same compound, the viability, T/C [10] was 64.1%, the viability, T/C [11] was 67.2% and the viability, T/C [12] was 70%. The viability, T/C [13] was 19.1%, the viability, T/C [14] was 19.9% and the viability, T/C [15] was 17.7%. It also gave a viability, T/C [16] of 22.1%, a viability, T/C [17] of 23.2% and a viability, T/C [18] of 18.1%. For the same compound, the viability, T/C [19] was 3.57%, the viability, T/C [20] was 3.77% and the viability, T/C [21] was 3.91%. For the same compound, the viability, T/C [22] was 3.85%, the viability, T/C [23] was 4.62% and the viability, T/C [24] was 7.3%. It also gave a viability, T/C [25] of 2.42%, a viability, T/C [26] of 2.35% and a viability, T/C [27] of 2.33%. It also gave a viability, T/C [28] of 2.58%, a viability, T/C [29] of 3.1% and a viability, T/C [30] of 2.88%. The viability, T/C [31] was 0.21%, the viability, T/C [32] was 0.29% and the viability, T/C [33] was 0.4%. The viability, T/C [34] was 0.43%, the viability, T/C [35] was 0.91% and the viability, T/C [36] was 0.42%.
In the case of O=C(NO)c1cnc(N2CCN(S(=O)(=O)c3ccc4ccccc4c3)CC2)nc1 + Cc1cnc(CNC(=O)c2c(=O)c3ccc(N4CCCN(C)CC4)nc3n3c2sc2ccccc23)cn1, the IC50 (second compound 0.0316 µM) is reported as 538 nM, the IC50 (second compound 0.1 µM) is reported as 372 nM and the IC50 (second compound 0.316 µM) is reported as under 31.6 nM. For the same compound, the IC50 (second compound 1 µM) was under 31.6 nM, the IC50 (second compound 3.16 µM) was under 31.6 nM and the IC50 (second compound 10 µM) was under 31.6 nM. For the same compound, the viability, T/C [1] was 95.5%, the viability, T/C [2] was 79.8% and the viability, T/C [3] was 79.5%. For the same compound, the viability, T/C [4] was 15.9%, the viability, T/C [5] was 0.04% and the viability, T/C [6] was 0.06%. It also gave a viability, T/C [7] of 65%, a viability, T/C [8] of 69.3% and a viability, T/C [9] of 56%. For the same compound, the viability, T/C [10] was 11.7%, the viability, T/C [11] was 0.05% and the viability, T/C [12] was 0.08%. It also gave a viability, T/C [13] of 19.9%, a viability, T/C [14] of 24.9% and a viability, T/C [15] of 24.2%. It also gave a viability, T/C [16] of 1.65%, a viability, T/C [17] of 0.03% and a viability, T/C [18] of 0.07%. The viability, T/C [19] was 4.31%, the viability, T/C [20] was 2.8% and the viability, T/C [21] was 1.46%. For the same compound, the viability, T/C [22] was 0.09%, the viability, T/C [23] was 0.04% and the viability, T/C [24] was 0.07%. For the same compound, the viability, T/C [25] was 1.32%, the viability, T/C [26] was 0.92% and the viability, T/C [27] was 0.23%. It also gave a viability, T/C [28] of 0.12%, a viability, T/C [29] of 0.08% and a viability, T/C [30] of 0.09%. The viability, T/C [31] was 0.16%, the viability, T/C [32] was 0.2% and the viability, T/C [33] was 0.2%. For the same compound, the viability, T/C [34] was 0.14%, the viability, T/C [35] was 0.15% and the viability, T/C [36] was 0.18%.
